Experimental data as given in publication PMC9501525, “Conjugation of a Cationic Cell-Penetrating Peptide with a Novel Kunitzin-like Trypsin Inhibitor: New Insights for Enhancement of Peptide Bioactivities” (Pharmaceutics, 2022).
Peptide text beside a SMILES is read from it.

Columns and labels:
Format in all cases: cell-based
[1] = test system: HMEC-1 human microvascular endothelial cells; test: MTT cell antiproliferation assay; details: HMEC-1 normal cells, 24 h of treatment, 10^−9–10^−4 M
Method: (§1) The antiproliferative activities of the synthesized peptides were assessed on six human cancer cell lines (PC-3, H157, H460, H838, MCF-7, U251MG) and two human normal cell lines (HMEC-1 and MRC-5) using the MTT cell viability assay. Human lung cancer cells (H838, H157, and H460) and human prostate cancer cells (PC-3) were cultured in complete growth medium (CGM) (Roswell Park Memorial Institute (RPMI) 1640 Medium (Gibco, Paisley, UK): Fetal bovine serum (FBS) (Gibco, Campinas, Brazil): Penicillin-streptomycin solution (PS) (Gibco, Grand Island, NY, USA) 89/10/1 v/v/v). Human glioblastoma astrocytoma (U251MG) and human breast cancer cell (MCF-7) were cultured in complete growth medium (Dulbecco’s Modified Eagle medium (DMEM) (Gibco, Paisley, UK): FBS: PS 89/10/1 v/v/v). Human microvascular endothelial cells (HMEC-1) and human pulmonary fibroblast cells (MRC-5) were cultured in MCDB131 medium (supplemented with 10% FBS, 1% PS, 10 ng/mL epidermal growth factor, 1 µg/mL hydrocortisone, and 10 mM glutamine) and Eagle’s Minimal Essential Medium (EMEM) (supplemented with 10% FBS and 1% PS), respectively. Cell suspension, containing 8 × 10^3 cells per 100 µL, was first added to 96-well plates for overnight incubation. Then, the adherent cells in the 96-well plates were subject to cell starvation using the serum free medium treatment for at least 4 h to ensure that the cells were all in the same growth cycle. The peptide solutions, with final concentrations of 10^−9–10^−4 M, were prepared with serum free medium and added onto the plate. In addition, Triton X-100 (0.1%) (Sigma-Aldrich, St. Louis, MO, USA) was used as a positive control. After 24 h of administration, the MTT solution was added to the plate and incubated for 2 h. Then, the supernatant was discarded and DMSO was added to dissolve the purple formazan crystals. The absorbance was measured in all wells using the Synergy HT plate reader at a wavelength of 570 nm.

[2] = test system: H460 human lung cancer cells; test: MTT cell antiproliferation assay; details: 24 h of treatment, serum free medium, 10^−9–10^−4 M
Method: as §1

[3] = test system: MCF-7 human breast cancer cells; test: MTT cell antiproliferation assay; details: MCF-7, MTT, 24 h of treatment, serum free medium, 10^−9–10^−4 M
Method: as §1

[4] = test system: U251MG human glioblastoma cells; test: MTT cell antiproliferation assay; details: 24 h of treatment, serum free medium, 10^−9–10^−4 M
Method: as §1

[5] = test system: MRC-5 human pulmonary fibroblast cells; test: LDH cytotoxicity assay; details: MRC-5, 24 h, highest test concentration 100 µM; relative to lysis buffer maximum
Method: A CyQUANT™ LDH Cytotoxicity Detection Kit (Thermo Fisher Scientific, Waltham, MA, USA) was used to detect the LDH released from human microvascular endothelial cell line (HMEC-1) and human pulmonary fibroblast cell line (MRC-5). Cells were cultured as for the MTT antiproliferation assay described previously. After incubation, the peptide solutions at the same concentrations as in the previous method were added to the cells for further incubation of 24 h. Among these, the positive control group, representing the maximal LDH release, was obtained from the 10 × lysis buffer supplied in the kit. The lysis buffer was added to the control group and co-cultured for 45 min, while deionized water was added to the spontaneous LDH release control. Subsequently, the same volume of sample as the reaction mixture was withdrawn, added into a new 96-well plate, and mixed well. After co-culturing under dark conditions for 30 min, an equal amount of stop solution was added to stop the reaction. Absorbance values of all experimental groups were measured at wavelengths of 490 and 680 nm using the Synergy HT plate reader.

| Compound | IC50 [1] [µM] | IC50 [2] [µM] | IC50 [3] [µM] | IC50 [4] [µM] | LDH release [5] |
| --- | --- | --- | --- | --- | --- |
| CC(C)C[C@H](NC(=O)[C@H](CCCCN)NC(=O)[C@H](C)NC(=O)[C@H](C)NC(=O)CNC(=O)CNC(=O)[C@H](CCCNC(=N)N)NC(=O)[C@H](CCCNC(=N)N)NC(=O)[C@H](CCCNC(=N)N)NC(=O)[C@H](CCC(N)=O)NC(=O)[C@H](CCCNC(=N)N)NC(=O)[C@H](CCCNC(=N)N)NC(=O)[C@H](CCCCN)NC(=O)[C@H](CCCCN)NC(=O)[C@@H](N)CCCNC(=N)N)C(=O)N1CCC[C@H]1C(=O)N[C@@H](Cc1ccccc1)C(=O)N[C@@H](CCCNC(=N)N)C(=O)N[C@H]1CSSC[C@@H](C(=O)O)NC(=O)[C@H](Cc2ccccc2)NC(=O)[C@H](C)NC(=O)[C@H](C)NC(=O)[C@H](CCCCN)NC1=O [TAT-KOV2] (HELM PEPTIDE1{R.K.K.R.R.Q.R.R.R.G.G.A.A.K.L.P.F.R.C.K.A.A.F.C}$PEPTIDE1,PEPTIDE1,19:R3-24:R3$$$V2.0) | 166 | 49.2 | – | – | – |
| CC(C)C[C@H](NC(=O)[C@H](CCCCN)NC(=O)[C@H](C)NC(=O)[C@H](C)NC(=O)CNC(=O)CNC(=O)[C@H](CCCNC(=N)N)NC(=O)[C@H](CCCNC(=N)N)NC(=O)[C@H](CCCNC(=N)N)NC(=O)[C@H](CCC(N)=O)NC(=O)[C@H](CCCNC(=N)N)NC(=O)[C@H](CCCNC(=N)N)NC(=O)[C@H](CCCCN)NC(=O)[C@H](CCCCN)NC(=O)[C@@H](N)CCCNC(=N)N)C(=O)N1CCC[C@H]1C(=O)N[C@@H](Cc1ccccc1)C(=O)N[C@@H](CCCNC(=N)N)C(=O)N[C@H]1CSSC[C@@H](C(=O)O)NC(=O)[C@H](Cc2ccccc2)NC(=O)[C@H](C)NC(=O)[C@H](C)NC(=O)[C@H](Cc2ccccc2)NC1=O [TAT-F9-KOV2] (HELM PEPTIDE1{R.K.K.R.R.Q.R.R.R.G.G.A.A.K.L.P.F.R.C.F.A.A.F.C}$PEPTIDE1,PEPTIDE1,19:R3-24:R3$$$V2.0) | 98.1 | 5.1 | 11.7 | 7.6 | more than 10% |
